“Also recorded” adds a separate entry of the source.
Experiments:
[1] = tested on: ID8 murine ovarian tumor cells; test: Annexin V/propidium iodide flow cytometry of chemotherapy-treated ID8 cells; type: cell-based; details: annexin V/PI; cisplatin 30 μM 48 hours, carboplatin 100 μM 72 hours, paclitaxel 1 μM 48 hours
Protocol: Chemotherapy-generated murine (ID8) and human (OVCAR5) ovarian tumor cell debris were prepared by re-feeding 70% confluent T150 flasks with complete medium plus 1 μM paclitaxel (Cayman Chemical, Ann Arbor, MI) or 100 μM carboplatin (Sigma Aldrich, Natick, MA) and incubating for 48 or 72 hours, respectively, at 37° C. Cisplatin-generated ID8 debris was prepared by re-feeding 70% confluent T150 flasks with complete medium plus 30 μM cisplatin (Sigma Aldrich, Natick, MA) and incubating for 48 hours at 37° C. The resulting floating population (e.g., dead cells or “debris”) was collected, counted via hemocytometer, and pelleted. The dead cells were resuspended with phosphate-buffered saline (PBS), pelleted, and resuspended again at the desired concentration in PBS.
Murine (ID8) or human (OVCAR5) ovarian tumor cells were treated with vehicle or a chemotherapeutic agent (e.g., cisplatin, carboplatin, or paclitaxel) as described. B/CMBA.Ov murine ovarian epithelial cells were treated with vehicle or PTUPB (1 or 5 μM) for 24 hours. The floating population (e.g., dead cells or “debris”) was collected, and the remaining adhered cells were trypsinized and combined with the dead cells. RAW264.7 murine macrophages were treated with vehicle or PTUPB (5 μM) for 24 hours. The floating population was collected and the remaining adhered cells were detached using a cell scraper (Corning Inc., Corning, NY) and combined with the dead cells. Cells were counted via hemocytometer, pelleted, and resuspended in PBS at 1×10^6 cells/mL. Next, 2×10^5 cells were stained with annexin V and propidium iodide (PI) according to FITC Annexin V/Dead Cell Apoptosis Kit protocol (Life Technologies, Carlsbad, CA). Staining was assessed using the BD LSR Fortessa (BD Biosciences, San Jose, CA) at the Dana-Farber Cancer Institute Jimmy Fund Flow Cytometry Core, and analyzed using FlowJo software (Tree Star Inc., Ashland, OR). Experiments were performed three times with similar results.

[2] = tested on: RAW264.7 murine macrophages; type: cell-based; details: 5 μM, 2 hours pre-treatment

Compound | cell death in ID8 ovarian cells [1] | cytokine storm released by macrophages stimulated with aflatoxin B1-generated Hepa 1-6 debris [2]
N.N.[Cl][Pt][Cl] [Cisplatin] | 67% | 
COc1ccc(-n2nc(CCCNC(=O)Nc3ccc(C(F)(F)F)cc3)cc2-c2ccccc2)cc1 [Ome-21i, 1-(3-(1-(4-methoxyphenyl)-5-phenyl-1H-pyrazol-3-yl)propyl)-3-(4-(trifluoromethyl)phenyl)urea] |  | shows potency in down-regulating; also recorded: inhibited
N.N.O=C([O-])C1(C(=O)[O-])CCC1.[Pt+2] [carboplatin] | 78% | 
CC(=O)O[C@H]1C(=O)[C@@]2(C)[C@H]([C@H](OC(=O)c3ccccc3)[C@]3(O)C[C@H](OC(=O)[C@H](O)[C@@H](NC(=O)c4ccccc4)c4ccccc4)C(C)=C1C3(C)C)[C@]1(OC(C)=O)CO[C@@H]1C[C@@H]2O [paclitaxel] | 56% | 

Source: US12485107B2, “Methods for the prevention or treatment of cytokine storm” (Beth Israel Deaconess Medical Center, Inc., priority 2019, dated 2025)
